Measurements taken from patent US6812236B2, “Compounds useful in therapy” (Pfizer Inc., priority 1999, dated 2004).

Target: T1, mu opioid receptor (Canis lupus familiaris, UniProt A0A0F6TMT6)
T1 construct: Laboratory bred beagles were used as a source of dog brain tissue; from tissue; host or cells: beagle dog brain without cerebellum, washed membrane pellet
Test: mu opioid receptor binding assay in dog brain membranes (3H-DAMGO displacement)
Conditions: dog brain tissue, read-out: Ki values for the μ receptor
Description: The assays were conducted by the following procedure.
Laboratory bred beagles were used as a source of dog brain tissue. Animals were euthanised, their brains removed and the cerebellum discarded. The remaining brain tissue was sectioned into small pieces approximately 3 g in weight and homogenised in 50 mM Tris pH 7.4 buffer at 4° C. using a Kinematica Polytron™ tissue homogeniser. The resulting homogenate was centrifuged at 48,400× g for 10 minutes and the supernatant discarded. The pellet was resuspended in Tris buffer and incubated at 37° C. for 10 minutes. Centrifugation, resuspension and incubation steps were repeated twice more, and the final pellet was resuspended in Tris buffer and stored at −80° C. Membrane material prepared in this manner could be stored for up to four weeks prior to use.
For mu assays, increasing concentrations of experimental compound, (5×10^−12 to 10^−5 M), Tris buffer and ^3H ligand, ([D-Ala^2,N-Me-Phe^4,Gly-ol^5]-Enkephalin, DAMGO), were combined in polystyrene tubes. The reaction was initiated by the addition of tissue, and the mixture was incubated at room temperature for 90 minutes. The reaction was terminated by rapid filtration using a Brandel Cell Harvester™ through Betaplate™ GF/A glass fibre filters pre-soaked in 50 mM Tris pH 7.4, 0.1% polyethylenimine buffer. The filters were then washed three times with 0.5 mL ice-cold Tris pH 7.4 buffer. Washed filters were placed in bags and Starscint™ scintillant added. Bags containing the filters and scintillant were heat sealed and counted by a Betaplate™ 1204 beta counter.
Duplicate samples were run for each experimental compound and the data generated was analysed using IC50 analysis software in Graphpad Prism. Ki values were calculated using Graphpad Prism according to the following formula: […]
where IC50 is the concentration at which 50% of the ^3H ligand is displaced by the test compound and KD is the dissociation constant for the ^3H ligand at the receptor site.

T1 sequence (A0A0F6TMT6 1-401): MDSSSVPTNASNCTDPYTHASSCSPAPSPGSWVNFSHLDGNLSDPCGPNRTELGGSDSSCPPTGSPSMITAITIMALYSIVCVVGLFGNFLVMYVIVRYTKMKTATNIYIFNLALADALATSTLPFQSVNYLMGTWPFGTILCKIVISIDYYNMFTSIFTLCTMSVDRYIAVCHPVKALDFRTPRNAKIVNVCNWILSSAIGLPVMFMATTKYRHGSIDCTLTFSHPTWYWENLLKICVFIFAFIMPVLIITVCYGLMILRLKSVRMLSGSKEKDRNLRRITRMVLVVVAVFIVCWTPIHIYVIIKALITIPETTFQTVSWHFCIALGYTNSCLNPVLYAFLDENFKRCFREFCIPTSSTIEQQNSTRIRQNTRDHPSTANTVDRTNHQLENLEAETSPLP

| SMILES | Ki |
| --- | --- |
| CCCCCCN1CCC(C)(c2cccc(C(=O)NC(C)C)c2)C(C)C1 (stereo not shown) [Example 4, 1-Hexyl-3,4-dimethyl-4-(3-(N-isopropyl)amidophenyl)-piperidine] | ≤ 4 µM |
| CCNC(=O)c1cccc(C2(C)CCN(CCCCC(C)C)CC2C)c1 (stereo not shown) [Example 18, 1-(5-Methylhexyl)-3,4-dimethyl-4-(3-(N-ethyl)-amidophenyl)piperidine] | ≤ 4 µM |
| CCNC(=O)c1cccc(C2(C)CCN(CCCCCC#N)CC2C)c1 (stereo not shown) [Example 20, 1-(5-Cyanopentyl)-3,4-dimethyl-4-(3-(N-ethyl)-amidophenyl)piperidine] | ≤ 4 µM |
| CCCCCCN1CCC(C)(c2cccc(C(=O)NCC)c2)C(C)C1 (stereo not shown) [Example 8, 1-Hexyl-3,4-dimethyl-4-(3-(N-ethyl)amidophenyl)-piperidine] | ≤ 4 µM |
